Measured values from ChEMBL document CHEMBL4483862, “Open-source discovery of chemical leads for next-generation chemoprotective antimalarials” (2018).

Tested on: Plasmodium berghei
Experiment: Luciferase/luciferin-expressing antifolate-resistant parasites were used to infect a culture of HepG2 cells that were pre-incubated with compounds. Infected hepatocytes emit light due to the luciferase reaction. Assay results are presented as the percent inhibition of light emission compared to control. […]
Type: functional
Details: sporozoite; for IC90: read-out: LUCIFERASE INFECTION ASSAY - IC90

CNC(=O)CN(c1cc(OCCOC)c(Cl)cc1Cl)S(=O)(=O)c1ccc(OC)cc1
IC50 (HEPG2TOX_HILL_SLOPE 3.52, HEPG2TOX_R_SQUARED 0.986, PBLUC_HILL_SLOPE 18.4, PBLUC_R_SQUARED 0.669, read-out: LUCIFERASE INFECTION ASSAY - IC50): 0.771 µM | IC90: 0.87 µM

Clc1cccc(Cl)c1/C=C/c1cc[nH]n1
IC50 (HEPG2TOX_HILL_SLOPE 3.46, HEPG2TOX_R_SQUARED 0.979, PBLUC_HILL_SLOPE 12.7, PBLUC_R_SQUARED 0.349, read-out: LUCIFERASE INFECTION ASSAY - IC50): 12 µM | IC90: > 13.8 µM

c1ccc(-c2nnc(-c3ccccn3)nc2-c2ccccc2)cc1
IC50 (HEPG2TOX_HILL_SLOPE 3.54, HEPG2TOX_R_SQUARED 0.979, PBLUC_HILL_SLOPE 15.1, PBLUC_R_SQUARED 0.651, read-out: LUCIFERASE INFECTION ASSAY - IC50): 3.65 µM | IC90: 4.22 µM

OCc1cccc(-c2cnc3ccc(-c4cccc(Oc5ccccc5)c4)nn23)c1
IC50 (HEPG2TOX_HILL_SLOPE 3.57, HEPG2TOX_R_SQUARED 0.188, PBLUC_HILL_SLOPE 2.99, PBLUC_R_SQUARED 0.337, read-out: LUCIFERASE INFECTION ASSAY - IC50): 2.23 µM | IC90: 4.64 µM

CCN(CC)c1ccc(NC(=O)CCc2ccccc2)cc1C
IC50 (HEPG2TOX_HILL_SLOPE 3.47, HEPG2TOX_R_SQUARED 0.947, PBLUC_HILL_SLOPE 2.46, PBLUC_R_SQUARED 0.836, read-out: LUCIFERASE INFECTION ASSAY - IC50): 2.79 µM | IC90: 6.81 µM

CNc1nc2cnc(Nc3ccccc3)cc2n1Cc1ccco1
IC50 (HEPG2TOX_HILL_SLOPE 3.53, HEPG2TOX_R_SQUARED 0.949, PBLUC_HILL_SLOPE 2.74, PBLUC_R_SQUARED 0.404, read-out: LUCIFERASE INFECTION ASSAY - IC50): 4.93 µM | IC90: > 10 µM

Nc1c(-c2ccccc2)c(CN2CCN(Cc3ccccc3)CC2)nn1-c1ccc(Cl)cc1
IC50 (HEPG2TOX_HILL_SLOPE 3.47, HEPG2TOX_R_SQUARED 0.813, PBLUC_HILL_SLOPE 2.28, PBLUC_R_SQUARED 0.79, read-out: LUCIFERASE INFECTION ASSAY - IC50): 3.42 µM | IC90: 8.97 µM

CN(CCCNC(=O)CSc1nnc(-c2c[nH]c3ccccc23)n1C1CC1)c1ccccc1
IC50 (HEPG2TOX_HILL_SLOPE 3.48, HEPG2TOX_R_SQUARED 0.658, PBLUC_HILL_SLOPE 4.72, PBLUC_R_SQUARED 0.65, read-out: LUCIFERASE INFECTION ASSAY - IC50): 5.85 µM | IC90: 9.32 µM

CC1Cc2cc(S(N)(=O)=O)ccc2N1C(=O)CN1CCCN(c2ccc(C(F)(F)F)cn2)CC1 (centres undefined)
IC50 (HEPG2TOX_HILL_SLOPE 3.49, HEPG2TOX_R_SQUARED 0.873, read-out: LUCIFERASE INFECTION ASSAY - IC50): > 10 µM | IC90: > 10 µM

OCc1cccc(-c2cnc3ccc(-c4ccccc4)nn23)c1
IC50 (HEPG2TOX_HILL_SLOPE 3.47, HEPG2TOX_R_SQUARED 0.7, PBLUC_HILL_SLOPE 5.19, PBLUC_R_SQUARED 0.0412, read-out: LUCIFERASE INFECTION ASSAY - IC50): 5.02 µM | IC90: 7.66 µM

CCCNS(=O)(=O)c1cccc(C(=O)N2CCN(c3cccc(OC)c3)CC2)c1
IC50 (HEPG2TOX_HILL_SLOPE 3.58, HEPG2TOX_R_SQUARED 0.848, read-out: LUCIFERASE INFECTION ASSAY - IC50): > 10 µM | IC90: > 10 µM

COc1ccc2cc(C(C)C(=O)N/N=C/c3ccccc3O)ccc2c1 (centres undefined)
IC50 (HEPG2TOX_HILL_SLOPE 3.47, HEPG2TOX_R_SQUARED 0.909, PBLUC_HILL_SLOPE 4.89, PBLUC_R_SQUARED 0.506, read-out: LUCIFERASE INFECTION ASSAY - IC50): 6.69 µM | IC90: > 9.47 µM

CN(CC1COc2ccccc2O1)c1ccc(C#N)cn1 (centres undefined)
IC50 (HEPG2TOX_HILL_SLOPE 3.52, HEPG2TOX_R_SQUARED 0.623, PBLUC_HILL_SLOPE 1.89, PBLUC_R_SQUARED 0.914, read-out: LUCIFERASE INFECTION ASSAY - IC50): 5.89 µM | IC90: > 10 µM

CN(C)CCCNC(=O)c1ccc(-c2cn3c(-c4ccc(Cl)cc4)cnc3cn2)cc1
IC50 (HEPG2TOX_HILL_SLOPE 3.47, HEPG2TOX_R_SQUARED 0.818, PBLUC_HILL_SLOPE 9.43, PBLUC_R_SQUARED 0.518, read-out: LUCIFERASE INFECTION ASSAY - IC50): 2.98 µM | IC90: 3.76 µM

Fc1ccc(Cc2ccc3ncc(-c4ccncc4)n3n2)cc1
IC50 (HEPG2TOX_HILL_SLOPE 3.58, HEPG2TOX_R_SQUARED 0.787, PBLUC_HILL_SLOPE 13.1, PBLUC_R_SQUARED 0.419, read-out: LUCIFERASE INFECTION ASSAY - IC50): 8.32 µM | IC90: 9.84 µM

Cc1noc(N)c1-c1nc(-c2cccc(C(F)(F)F)c2)cs1
IC50 (HEPG2TOX_HILL_SLOPE 3.53, HEPG2TOX_R_SQUARED 0.703, read-out: LUCIFERASE INFECTION ASSAY - IC50): > 10.1 µM | IC90: > 10.1 µM

N#Cc1ccccc1OC(=O)Nc1ccc(SC(F)(F)F)cc1
IC50 (HEPG2TOX_HILL_SLOPE 3.54, HEPG2TOX_R_SQUARED 0.941, PBLUC_HILL_SLOPE 4.88, PBLUC_R_SQUARED 0.753, read-out: LUCIFERASE INFECTION ASSAY - IC50): 1.16 µM | IC90: 1.82 µM

Cc1cc(C(=O)CN(Cc2ccco2)S(=O)(=O)/C=C/c2ccccc2)c(C)n1C
IC50 (HEPG2TOX_HILL_SLOPE 3.54, HEPG2TOX_R_SQUARED 0.932, PBLUC_HILL_SLOPE 9.57, PBLUC_R_SQUARED 0.198, read-out: LUCIFERASE INFECTION ASSAY - IC50): 8.84 µM | IC90: > 10 µM

Cc1cc(C(C)(C)C)cc(C(C)(C)C)[s+]1
IC50 (HEPG2TOX_HILL_SLOPE 3.48, HEPG2TOX_R_SQUARED 0.99, PBLUC_HILL_SLOPE 2.71, PBLUC_R_SQUARED 0.511, read-out: LUCIFERASE INFECTION ASSAY - IC50): 3.46 µM | IC90: 7.78 µM

COc1cc(Nc2ncc3c(n2)CCN(C(=O)Nc2ccc(F)c(Cl)c2)C3)cc(OC)c1OC
IC50 (HEPG2TOX_HILL_SLOPE 3.56, HEPG2TOX_R_SQUARED 0.576, PBLUC_HILL_SLOPE 6.46, PBLUC_R_SQUARED 0.101, read-out: LUCIFERASE INFECTION ASSAY - IC50): 5.03 µM | IC90: > 6.76 µM

CCN1C(=O)N(C2Cc3ccccc3C2)C(=O)C12CCN(Cc1cc3ccccc3[nH]1)CC2
IC50 (HEPG2TOX_HILL_SLOPE 3.47, HEPG2TOX_R_SQUARED 0.984, PBLUC_HILL_SLOPE 2.65, PBLUC_R_SQUARED 0.483, read-out: LUCIFERASE INFECTION ASSAY - IC50): 3.77 µM | IC90: > 7.46 µM

O=C(OCc1csc(-c2ccccc2)n1)c1cc([N+](=O)[O-])ccc1N1CCC(Cc2ccccc2)CC1
IC50 (HEPG2TOX_HILL_SLOPE 3.49, HEPG2TOX_R_SQUARED 0.926, PBLUC_HILL_SLOPE 12.2, PBLUC_R_SQUARED 0.465, read-out: LUCIFERASE INFECTION ASSAY - IC50): 8.99 µM | IC90: > 10 µM

CC(NC(=O)c1nc(-c2ccccc2)n(-c2ccccc2)n1)C12CC3CC(CC(C3)C1)C2 (centres undefined)
IC50 (HEPG2TOX_HILL_SLOPE 3.46, HEPG2TOX_R_SQUARED 0.871, PBLUC_HILL_SLOPE 90.3, PBLUC_R_SQUARED 0.516, read-out: LUCIFERASE INFECTION ASSAY - IC50): 5.15 µM | IC90: 5.28 µM

O=C(Nc1nc2ccccc2s1)N1CC=C(c2c[nH]c3ncccc23)CC1
IC50 (HEPG2TOX_HILL_SLOPE 3.51, HEPG2TOX_R_SQUARED 0.954, PBLUC_HILL_SLOPE 3.11, PBLUC_R_SQUARED 0.433, read-out: LUCIFERASE INFECTION ASSAY - IC50): 6.66 µM | IC90: > 10 µM

O=c1c(Cl)c(Cl)cnn1-c1ccc(F)c(Cl)c1
IC50 (HEPG2TOX_HILL_SLOPE 3.48, HEPG2TOX_R_SQUARED 0.867, PBLUC_HILL_SLOPE 16.6, PBLUC_R_SQUARED 0.498, read-out: LUCIFERASE INFECTION ASSAY - IC50): 3.81 µM | IC90: 4.35 µM

COc1ccc(O)c(C(=O)c2c[nH]c(C(=O)N3CCCC3)c2)c1
IC50 (HEPG2TOX_HILL_SLOPE 3.52, HEPG2TOX_R_SQUARED 0.659, PBLUC_HILL_SLOPE 0.979, PBLUC_R_SQUARED 0.275, read-out: LUCIFERASE INFECTION ASSAY - IC50): > 10 µM | IC90: > 10 µM

OC(COc1ccc(OC(F)(F)F)cc1)CN1CCN(c2nc3ccc(Cl)cc3s2)CC1 (centres undefined)
IC50 (HEPG2TOX_HILL_SLOPE 3.53, HEPG2TOX_R_SQUARED 0.823, PBLUC_HILL_SLOPE 2.94, PBLUC_R_SQUARED 0.35, read-out: LUCIFERASE INFECTION ASSAY - IC50): 4.19 µM | IC90: > 6.76 µM

CC(C)NC(=O)c1c(NC(=O)c2cccc(F)c2)nc2ccccn12
IC50 (HEPG2TOX_HILL_SLOPE 3.53, HEPG2TOX_R_SQUARED 0.8, PBLUC_HILL_SLOPE 29.8, PBLUC_R_SQUARED 0.0967, read-out: LUCIFERASE INFECTION ASSAY - IC50): 6.88 µM | IC90: 7.41 µM

O=S(=O)(c1ccc(Cl)cc1)c1nc(Nc2ccccc2)sc1Cl
IC50 (HEPG2TOX_HILL_SLOPE 3.54, HEPG2TOX_R_SQUARED 0.784, PBLUC_HILL_SLOPE 12.5, PBLUC_R_SQUARED 0.109, read-out: LUCIFERASE INFECTION ASSAY - IC50): 9.24 µM | IC90: > 10 µM

COC(=O)c1cnc(NC(=O)/C=C/c2ccc([N+](=O)[O-])o2)s1
IC50 (HEPG2TOX_HILL_SLOPE 3.5, HEPG2TOX_R_SQUARED 0.48, read-out: LUCIFERASE INFECTION ASSAY - IC50): > 10 µM | IC90: > 10 µM

COCCN1COc2c(cc(Cl)c3cccnc23)C1
IC50 (HEPG2TOX_HILL_SLOPE 3.55, HEPG2TOX_R_SQUARED 0.927, PBLUC_HILL_SLOPE 12, PBLUC_R_SQUARED 0.223, read-out: LUCIFERASE INFECTION ASSAY - IC50): 4.47 µM | IC90: 5.37 µM

Cn1ccc2cc(-c3cnc4cnc(-c5ccc(F)c(Cl)c5)cn34)ccc21
IC50 (HEPG2TOX_HILL_SLOPE 3.52, HEPG2TOX_R_SQUARED 0.929, PBLUC_HILL_SLOPE 14.4, PBLUC_R_SQUARED 0.566, read-out: LUCIFERASE INFECTION ASSAY - IC50): 3.05 µM | IC90: 3.55 µM
